# Structures can show the parent of a compound that is named as a salt.
# Experiments:
# [1] = test system: guinea pigs; experiment: Impact on the itch-causing effect of histamine phosphate (itch-causing threshold); type: in vivo; conditions: for alleviation of the itch-causing effect of histamine phosphate (in words): administration alone; for itch-causing threshold: oral, 3 consecutive days
# [2] = test system: patients with diagnosed neurodermatitis; experiment: Clinical study of cannabinoid compound for neurodermatitis; type: in vivo, human; conditions: 2 weeks; for Cured (number of patients, efficacy index >90%) / effective (number of patients, efficacy index 20-60%) / excellently effective (number of patients, efficacy index 61-89%) / ineffective (number of patients, efficacy index <20%): orally once per day at bedtime, n=10; for clinical efficacy in neurodermatitis (in words): patients, orally once per day
# [3] = target: T1, 5-HT1A receptors (Mus musculus, UniProt Q64264); conditions: possibly through activation of 5-HT1A receptors; cited from earlier work
# T1 construct: host or cells: mice (in vivo)
# T1 sequence (Q64264 1-421): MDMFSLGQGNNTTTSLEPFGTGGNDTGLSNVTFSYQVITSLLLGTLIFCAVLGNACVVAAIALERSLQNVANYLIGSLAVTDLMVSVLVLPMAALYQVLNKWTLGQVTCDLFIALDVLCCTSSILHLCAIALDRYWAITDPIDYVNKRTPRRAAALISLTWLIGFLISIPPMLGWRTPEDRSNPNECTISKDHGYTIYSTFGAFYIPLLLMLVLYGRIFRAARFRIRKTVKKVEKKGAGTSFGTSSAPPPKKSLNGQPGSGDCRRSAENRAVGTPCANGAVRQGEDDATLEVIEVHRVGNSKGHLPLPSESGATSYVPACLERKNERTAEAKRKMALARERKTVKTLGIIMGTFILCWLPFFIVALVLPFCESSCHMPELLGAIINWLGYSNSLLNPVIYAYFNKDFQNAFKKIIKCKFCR
# [4] = 200 mg of cannabidiol (Embodiment 1)
# [5] = 25 mg/d of doxepin hydrochloride
# [6] = 100 mg of tetrahydrocannabinol (Embodiment 3)
structure (smiles),measurement,setting,value
C=C(C)[C@@H]1CCC(C)=C[C@H]1c1c(O)cc(CCCCC)cc1O [cannabidiol],alleviation of the itch-causing effect of histamine phosphate (in words),[1],significantly alleviates
same,itch-causing threshold,[1]; 50 mg/day,90.24 ± 45.98 µL
same,itch-causing threshold,[1]; 200 mg/day,96.55 ± 42.34 µL
same,itch-causing threshold,[1]; 400 mg/day,117.67 ± 44.67 µL
same,"Cured (number of patients, efficacy index >90%)",[2]; [4],1
same,"effective (number of patients, efficacy index 20-60%)",[2]; [4],6
same,"excellently effective (number of patients, efficacy index 61-89%)",[2]; [4],3
same,"ineffective (number of patients, efficacy index <20%)",[2]; [4],0
same,clinical efficacy in neurodermatitis (in words),[2],have clinical efficacy in neurodermatitis
same,antidepressant activity in mice (in words),[3],has antidepressant activity in mice
C=C(C)[C@@H]1CCC(C)=C[C@H]1c1c(O)cc(CCC)cc1O [cannabidivarin],itch-causing threshold,[1]; 40 mg/day,56.23 ± 45.87 µL
same,itch-causing threshold,[1]; 80 mg/day,59.55 ± 39.84 µL
same,itch-causing threshold,[1]; 100 mg/day,56.89 ± 34.25 µL
"CN(C)CCC(c1ccc(Cl)cc1)c1ccccn1 (stereo not drawn) [chlorphenamine maleate, reference compound]",itch-causing threshold,[1]; 10 mg/day,127.03 ± 54.05 µL
"CN(C)CCC=C1c2ccccc2COc2ccccc21 [doxepin hydrochloride, reference compound]","Cured (number of patients, efficacy index >90%)",[2]; [5],0
same,"effective (number of patients, efficacy index 20-60%)",[2]; [5],3
same,"excellently effective (number of patients, efficacy index 61-89%)",[2]; [5],6
same,"ineffective (number of patients, efficacy index <20%)",[2]; [5],1
CCCCCc1cc(O)c2c(c1)OC(C)(C)[C@@H]1CCC(C)=C[C@@H]21 [tetrahydrocannabinol],alleviation of the itch-causing effect of histamine phosphate (in words),[1],significantly alleviates
same,itch-causing threshold,[1]; 40 mg/day,90.65 ± 32.08 µL
same,itch-causing threshold,[1]; 80 mg/day,92.10 ± 50.78 µL
same,itch-causing threshold,[1]; 100 mg/day,94.98 ± 48.96 µL
same,"Cured (number of patients, efficacy index >90%)",[2]; [6],1
same,"effective (number of patients, efficacy index 20-60%)",[2]; [6],6
same,"excellently effective (number of patients, efficacy index 61-89%)",[2]; [6],2
same,"ineffective (number of patients, efficacy index <20%)",[2]; [6],1
same,clinical efficacy in neurodermatitis (in words),[2],have clinical efficacy in neurodermatitis
CCCc1cc(O)c2c(c1)OC(C)(C)[C@@H]1CCC(C)=C[C@@H]21 [tetrahydrocannabinovarin],itch-causing threshold,[1]; 5 mg/day,50.45 ± 45.67 µL
same,itch-causing threshold,[1]; 10 mg/day,56.43 ± 34.18 µL
same,itch-causing threshold,[1]; 20 mg/day,55.23 ± 40.92 µL
